Source: the supplement of paper PMC6045584
± gives the standard deviation of the averaged measurements.

Columns and labels:
[1] = compound: O=C(NOCC1CC1)c1ccc(F)c(F)c1Nc1ccc(I)cc1Cl; experiment: surviving fraction relative to DMSO-only wells; higher = less growth inhibition; details: exposure time: 5 days
Outline: (§1)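 Surviving fraction is CellTiter-Glo luminescence divided by the median of wells given DMSO only. For this, log-phase tumour cell lines went into 384-well plates at 250–500 cells per well and, 24 hours later, into five days of continuous inhibitor exposure at 0.5, 1, 5, 10, 50, 100, 500 and 1000 nM. Lines were screened three times and retained only if replicate Pearson r >0.7 and median Z' >0.3.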

[2] = compound: O=C(O)CC[C@H]1CC[C@@](c2cc(F)ccc2F)(S(=O)(=O)c2ccc(Cl)cc2)CC1 [MK0752]; experiment: as above; details: exposure time: 5 days
Outline: as §1

Row | Test System | surviving fraction ([1]; 0.5 nM) | surviving fraction ([1]; 1 nM) | surviving fraction ([1]; 5 nM) | surviving fraction ([1]; 10 nM) | surviving fraction ([1]; 50 nM) | surviving fraction ([1]; 100 nM) | surviving fraction ([1]; 500 nM) | surviving fraction ([1]; 1000 nM) | surviving fraction ([2]; 0.5 nM) | surviving fraction ([2]; 1 nM) | surviving fraction ([2]; 5 nM) | surviving fraction ([2]; 10 nM) | surviving fraction ([2]; 50 nM) | surviving fraction ([2]; 100 nM) | surviving fraction ([2]; 500 nM) | surviving fraction ([2]; 1000 nM)
1 | OSHN BONE | 0.969 ± 0.026 | 0.983 ± 0.029 | 0.979 ± 0.019 | 0.988 ± 0.028 | 0.969 ± 0.03 | 0.989 ± 0.016 | 0.973 ± 0.018 | 1 ± 0.027 | 1.12 ± 0.034 | 1.14 ± 0.035 | 1.11 ± 0.018 | 1.11 ± 0.018 | 1.11 ± 0.034 | 1.13 ± 0.018 | 1.12 ± 0.02 | 1.09 ± 0.017
2 | PCI30 HEADNECK | 0.831 ± 0.027 | 0.849 ± 0.074 | 1.02 ± 0.078 | 1.01 ± 0.029 | 0.903 ± 0.015 | 0.758 ± 0.026 | 0.433 ± 0.036 | 0.402 ± 0.023 | 1.02 ± 0.12 | 1.04 ± 0.12 | 1.09 ± 0.057 | 1.1 ± 0.05 | 1.06 ± 0.076 | 1.08 ± 0.092 | 1.03 ± 0.047 | 1.04 ± 0.018
3 | RDES SOFT TISSUE | 1.33 ± 0.025 | 1.27 ± 0.071 | 1.32 ± 0.15 | 1.33 ± 0.093 | 1.28 ± 0.1 | 1.29 ± 0.085 | 1.37 ± 0.16 | 1.24 ± 0.082 | 1.27 ± 0.1 | 1.241 ± 0.0096 | 1.17 ± 0.1 | 1.21 ± 0.18 | 1.03 ± 0.15 | 1.18 ± 0.29 | 0.97 ± 0.097 | 0.998 ± 0.12
4 | S68 BREAST | 0.917 ± 0.13 | 0.918 ± 0.21 | 0.901 ± 0.063 | 1.04 ± 0.27 | 0.801 ± 0.18 | 0.852 ± 0.13 | 0.669 ± 0.1 | 0.544 ± 0.096 | 0.684 ± 0.15 | 0.975 ± 0.11 | 0.912 ± 0.11 | 0.96 ± 0.28 | 0.94 ± 0.094 | 0.989 ± 0.058 | 0.919 ± 0.19 | 1.04 ± 0.27
5 | SAOS2 BONE | 1.08 ± 0.042 | 1.06 ± 0.032 | 1.04 ± 0.073 | 1.02 ± 0.018 | 1.02 ± 0.039 | 0.986 ± 0.078 | 0.885 ± 0.031 | 0.908 ± 0.047 | 1.18 ± 0.028 | 1.2037 ± 0.00058 | 1.19 ± 0.12 | 1.22 ± 0.077 | 1.237 ± 0.0098 | 1.19 ± 0.076 | 1.12 ± 0.019 | 1.092 ± 0.0035
6 | SCC36 HEADNECK | 1.09 ± 0.037 | 1.15 ± 0.03 | 1.09 ± 0.035 | 1.18 ± 0.12 | 1.03 ± 0.042 | 0.956 ± 0.057 | 0.776 ± 0.082 | 0.78 ± 0.087 | 1.06 ± 0.15 | 1.13 ± 0.14 | 1.19 ± 0.064 | 0.962 ± 0.057 | 1.12 ± 0.035 | 1.03 ± 0.055 | 1.03 ± 0.047 | 0.965 ± 0.073
7 | SCC47 HEADNECK | 0.82 ± 0.063 | 0.844 ± 0.011 | 0.951 ± 0.013 | 0.973 ± 0.087 | 0.928 ± 0.089 | 0.907 ± 0.044 | 0.628 ± 0.058 | 0.658 ± 0.024 | 1.13 ± 0.12 | 1.17 ± 0.034 | 1.2 ± 0.089 | 1.14 ± 0.029 | 1.14 ± 0.064 | 1.18 ± 0.038 | 1.03 ± 0.067 | 1.06 ± 0.058
8 | SCC90 HEADNECK | 0.786 ± 0.13 | 0.773 ± 0.081 | 0.991 ± 0.098 | 0.847 ± 0.16 | 0.672 ± 0.045 | 0.495 ± 0.12 | 0.235 ± 0.036 | 0.193 ± 0.037 | 1.19 ± 0.014 | 1.11 ± 0.15 | 1.24 ± 0.11 | 1.25 ± 0.12 | 1.11 ± 0.064 | 1.13 ± 0.11 | 1.03 ± 0.093 | 1.11 ± 0.091
9 | SG27 HEADNECK | 0.918 ± 0.036 | 1.02 ± 0.075 | 0.973 ± 0.11 | 0.986 ± 0.075 | 1.02 ± 0.22 | 0.988 ± 0.017 | 1.13 ± 0.12 | 1.24 ± 0.19 | 0.973 ± 0.05 | 0.891 ± 0.052 | 1.05 ± 0.082 | 0.988 ± 0.096 | 1.01 ± 0.066 | 1.08 ± 0.047 | 0.933 ± 0.14 | 0.923 ± 0.16
10 | SG28 HEADNECK | 0.871 ± 0.049 | 1.03 ± 0.061 | 0.836 ± 0.024 | 0.932 ± 0.099 | 0.801 ± 0.06 | 0.781 ± 0.065 | 0.633 ± 0.023 | 0.616 ± 0.017 | 1.15 ± 0.048 | 1.04 ± 0.062 | 1.05 ± 0.055 | 1.1 ± 0.027 | 0.982 ± 0.075 | 1.05 ± 0.044 | 1.12 ± 0.13 | 1.13 ± 0.11
11 | SG31 HEADNECK | 1.02 ± 0.087 | 0.977 ± 0.097 | 0.951 ± 0.14 | 1.06 ± 0.18 | 0.778 ± 0.12 | 0.756 ± 0.11 | 0.575 ± 0.032 | 0.547 ± 0.088 | 1.16 ± 0.18 | 1.07 ± 0.14 | 1.02 ± 0.2 | 0.991 ± 0.21 | 0.881 ± 0.14 | 0.963 ± 0.099 | 1.04 ± 0.17 | 1.11 ± 0.095
12 | SG32 HEADNECK | 0.546 ± 0.12 | 0.858 ± 0.042 | 0.883 ± 0.22 | 1.03 ± 0.049 | 0.701 ± 0.085 | 0.805 ± 0.065 | 0.751 ± 0.059 | 0.818 ± 0.079 | 1.11 ± 0.091 | 1.2 ± 0.039 | 1.26 ± 0.085 | 1.23 ± 0.11 | 1.21 ± 0.23 | 1.18 ± 0.039 | 0.972 ± 0.14 | 1.05 ± 0.086
13 | SG43 HEADNECK | 1.05 ± 0.079 | 0.969 ± 0.011 | 0.853 ± 0.17 | 0.676 ± 0.16 | 0.567 ± 0.1 | 0.521 ± 0.06 | 0.387 ± 0.07 | 0.333 ± 0.064 | 0.854 ± 0.3 | 0.901 ± 0.056 | 1.07 ± 0.43 | 0.862 ± 0.29 | 1.03 ± 0.18 | 0.934 ± 0.16 | 1.61 ± 0.055 | 1.08 ± 0.19
14 | SIHA CERVIX | 0.754 ± 0.016 | 0.8147 ± 0.0075 | 0.955 ± 0.058 | 0.923 ± 0.027 | 0.899 ± 0.018 | 0.873 ± 0.06 | 0.709 ± 0.042 | 0.765 ± 0.067 | 1.1 ± 0.046 | 1.15 ± 0.024 | 1.12 ± 0.044 | 1.15 ± 0.053 | 1.15 ± 0.025 | 1.21 ± 0.085 | 1.16 ± 0.11 | 1.14 ± 0.051
15 | SJSA1 BONE | 1.05 ± 0.036 | 1.06 ± 0.035 | 1.119 ± 0.0046 | 1.11 ± 0.013 | 0.968 ± 0.025 | 0.925 ± 0.027 | 0.742 ± 0.028 | 0.591 ± 0.046 | 1 ± 0.03 | 1.09 ± 0.044 | 1.02 ± 0.089 | 1.09 ± 0.06 | 1.08 ± 0.036 | 1.14 ± 0.02 | 1.03 ± 0.027 | 1.07 ± 0.044
16 | SKBR3 BREAST | 1.12 ± 0.17 | 1.1 ± 0.13 | 1.11 ± 0.07 | 1.1 ± 0.26 | 1.08 ± 0.19 | 1.05 ± 0.14 | 1.06 ± 0.14 | 1.05 ± 0.13 | 0.854 ± 0.14 | 1.05 ± 0.18 | 1.02 ± 0.06 | 0.917 ± 0.086 | 1.11 ± 0.092 | 1.08 ± 0.05 | 0.961 ± 0.11 | 1.06 ± 0.11
17 | SNU475 LIVER | 0.432 ± 0.042 | 0.908 ± 0.038 | 0.802 ± 0.022 | 0.941 ± 0.018 | 0.439 ± 0.015 | 0.883 ± 0.013 | 0.676 ± 0.018 | 0.741 ± 0.039 | 1.06 ± 0.028 | 1 ± 0.036 | 0.97 ± 0.052 | 1.02 ± 0.011 | 1.01 ± 0.019 | 1.03 ± 0.036 | 1.03 ± 0.037 | 0.965 ± 0.036
18 | SUM44 BREAST | 0.951 ± 0.042 | 0.954 ± 0.062 | 1.04 ± 0.013 | 1.05 ± 0.032 | 1.07 ± 0.064 | 1.03 ± 0.043 | 1.02 ± 0.082 | 1.03 ± 0.047 | 0.998 ± 0.06 | 0.992 ± 0.035 | 0.983 ± 0.033 | 1.015 ± 0.0072 | 1.04 ± 0.051 | 1.09 ± 0.025 | 1.02 ± 0.031 | 1.05 ± 0.03
19 | SUM149 BREAST | 0.375 ± 0.011 | 1.04 ± 0.067 | 0.908 ± 0.059 | 0.912 ± 0.032 | 0.512 ± 0.024 | 0.755 ± 0.1 | 0.407 ± 0.031 | 0.277 ± 0.053 | 0.927 ± 0.072 | 0.995 ± 0.09 | 1.03 ± 0.062 | 1.05 ± 0.03 | 1.01 ± 0.08 | 0.98 ± 0.15 | 0.884 ± 0.014 | 0.935 ± 0.068
20 | SUM149.B1*.S BREAST | 0.5813 ± 0.0045 | 0.956 ± 0.018 | 0.835 ± 0.058 | 0.945 ± 0.034 | 0.6543 ± 0.0045 | 0.789 ± 0.0088 | 0.503 ± 0.024 | 0.459 ± 0.05 | 1.11 ± 0.05 | 1.12 ± 0.044 | 1.1 ± 0.041 | 1.117 ± 0.004 | 1.18 ± 0.046 | 1.2 ± 0.029 | 1.03 ± 0.045 | 1.06 ± 0.068
21 | SUM159 BREAST | 1.06 ± 0.29 | 1.03 ± 0.12 | 1.11 ± 0.36 | 1.03 ± 0.24 | 0.84 ± 0.2 | 0.726 ± 0.1 | 0.518 ± 0.11 | 0.455 ± 0.023 | 1.16 ± 0.12 | 1.15 ± 0.098 | 1.13 ± 0.075 | 1.13 ± 0.085 | 1.06 ± 0.044 | 1.11 ± 0.022 | 1.13 ± 0.057 | 1.11 ± 0.035
